{"source": "paper PMC7403421", "about": "“Uncovering a possible role of reactive oxygen species in magnetogenetics” (Scientific Reports, 2020)", "target": "T1, TRPV1 (Rattus norvegicus, UniProt O35433)", "T1 construct": "rat TRPV1 with an N-terminally fused camelidae anti-GFP nanobody (αGFPnb-TRPV1), co-expressed with eGFP-tagged ferritin dimer in HEK-293T cells", "T1 sequence (O35433 whole entry, the tested form may be a part)": "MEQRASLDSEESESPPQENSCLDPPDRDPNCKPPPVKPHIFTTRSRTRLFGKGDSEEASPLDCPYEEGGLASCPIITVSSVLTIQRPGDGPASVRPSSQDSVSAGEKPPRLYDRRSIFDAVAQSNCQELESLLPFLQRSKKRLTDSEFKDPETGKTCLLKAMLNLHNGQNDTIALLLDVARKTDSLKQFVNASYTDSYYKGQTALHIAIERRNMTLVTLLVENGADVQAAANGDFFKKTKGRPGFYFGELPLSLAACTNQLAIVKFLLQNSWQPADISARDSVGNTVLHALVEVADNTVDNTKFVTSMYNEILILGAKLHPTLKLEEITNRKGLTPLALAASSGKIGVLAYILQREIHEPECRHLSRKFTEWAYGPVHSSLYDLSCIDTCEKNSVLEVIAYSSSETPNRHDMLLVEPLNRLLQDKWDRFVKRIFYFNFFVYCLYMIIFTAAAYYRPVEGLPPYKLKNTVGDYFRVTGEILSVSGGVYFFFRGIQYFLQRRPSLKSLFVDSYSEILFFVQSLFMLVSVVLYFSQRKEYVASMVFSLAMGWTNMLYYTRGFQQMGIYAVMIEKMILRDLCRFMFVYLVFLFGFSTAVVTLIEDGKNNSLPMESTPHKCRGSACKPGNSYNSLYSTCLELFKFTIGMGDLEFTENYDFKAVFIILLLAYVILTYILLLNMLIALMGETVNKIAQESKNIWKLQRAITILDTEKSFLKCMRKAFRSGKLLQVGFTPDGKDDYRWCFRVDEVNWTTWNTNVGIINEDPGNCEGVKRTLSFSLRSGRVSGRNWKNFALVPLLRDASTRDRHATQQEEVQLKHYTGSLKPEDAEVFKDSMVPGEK", "test": "agonist dose response in Ca2+-dependent SEAP reporter and fluorescent calcium imaging in HEK-293T cells expressing TRPV1", "type": "cell-based"}
{"smiles": "COc1cc(CNC(=O)CCCC/C=C/C(C)C)ccc1O", "note": "[capsaicin]", "values": [{"measurement": "agonist dose response in Ca2+-dependent SEAP reporter and fluorescent calcium im", "result": "Dose dependent TRPV1-mediated SEAP production was observed with respect to both capsaicin and inhibitor concentration"}]}
